{
  "source": "patent US6329137A",
  "about": "(priority 2000, dated 2001)",
  "key": {"PTP1B-FL": {"target": "PTP1B-FL (Homo sapiens, UniProt P18031)", "sequence (P18031 whole entry)": "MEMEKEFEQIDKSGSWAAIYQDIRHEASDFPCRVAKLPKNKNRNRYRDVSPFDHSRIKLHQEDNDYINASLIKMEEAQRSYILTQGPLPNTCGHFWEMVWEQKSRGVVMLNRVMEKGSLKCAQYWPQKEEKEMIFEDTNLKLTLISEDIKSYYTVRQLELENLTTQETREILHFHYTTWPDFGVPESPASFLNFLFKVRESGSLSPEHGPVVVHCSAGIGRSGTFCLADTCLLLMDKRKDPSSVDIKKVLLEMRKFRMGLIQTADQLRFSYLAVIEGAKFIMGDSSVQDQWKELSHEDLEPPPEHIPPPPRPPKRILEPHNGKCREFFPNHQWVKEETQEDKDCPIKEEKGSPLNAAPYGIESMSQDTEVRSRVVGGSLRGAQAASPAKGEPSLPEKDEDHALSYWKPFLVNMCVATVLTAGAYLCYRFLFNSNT", "test": "cell-based"}, "CD45": {"test_system": "CD45", "type": "cell-based"}, "[1]": {"test_system": "PTPs (PTP1B-FL, CD45-cat and CD45-FL)", "type": "cell-based"}, "recombinant PTP1B": {"test_system": "recombinant PTP1B", "conditions": "oxidizing its catalytic site cysteine; cited from earlier work"}, "[2]": {"test_system": "background phosphatases in mock-infected sf9 cells", "type": "cell-based, fall armyworm Spodoptera", "conditions": "for effect on background phosphatases: infected sf9 cells, 10 mM pNPP"}, "PTP": {"test_system": "PTP", "conditions": "cited from earlier work"}, "CD45-cat": {"test_system": "CD45-cat", "type": "cell-based", "conditions": "infected sf9 cells, 10 mM pNPP"}},
  "note": "Like-named read-outs stand apart in the source and are kept apart here.",
  "data": [
    {"smiles": "OO", "note": "[hydrogen peroxide]", "values": [
      {"measurement": "IC50", "setting": "PTP1B-FL", "result": "10 to 15", "unit": "µM"},
      {"measurement": "IC50", "setting": "CD45; read-out: IC50 range", "result": "10 to 15", "unit": "µM"},
      {"measurement": "potency and selectivity in words", "setting": "[1]; intact sf9 cells, 10 mM pNPP", "result": "limited potency and selectivity"},
      {"measurement": "IC50", "setting": "[1]; read-out: IC50 values in the range of", "result": "7 to 16", "unit": "µM"},
      {"measurement": "inactivation of recombinant PTP1B in vitro", "setting": "recombinant PTP1B", "result": "inactivate recombinant PTP1B in vitro"}
    ]},
    {"smiles": "[Na+].[Na+].[Na+].[O]=[V]([O-])([O-])[O-]", "note": "[vanadate, sodium orthovanadate]", "values": [
      {"measurement": "IC50", "setting": "[2]", "result": 1.6, "unit": "µM"},
      {"measurement": "mode of binding at active site", "setting": "PTP", "result": "competitively and reversibly bound at the active site"}
    ]},
    {"smiles": "C=C1[C@@H](O)[C@@H]2O[C@]3(CC[C@H](/C=C/[C@@H](C)[C@@H]4CC(C)=C[C@@]5(O[C@H](C[C@@](C)(O)C(=O)O)CC[C@H]5O)O4)O3)CC[C@H]2O[C@@H]1[C@@H](O)C[C@H](C)[C@H]1O[C@@]2(CCCCO2)CC[C@H]1C", "note": "[okadaic acid]", "values": [
      {"measurement": "effect on CD45-cat phosphatase", "setting": "CD45-cat; okadaic acid at 6.7 μM", "result": "Neither ouabain at 1 mM or okadaic acid at 6.7 μM had any effect"},
      {"measurement": "effect on background phosphatases", "setting": "[2]; okadaic acid at 6.7 μM", "result": "Neither ouabain at 1 mM or okadaic acid at 6.7 μM had any effect"},
      {"measurement": "effect on pNPP hydrolysis", "setting": "[1]", "result": "had no effect"}
    ]},
    {"smiles": "C[C@@H]1O[C@@H](O[C@H]2C[C@@H](O)[C@]3(CO)[C@H]4[C@H](O)C[C@]5(C)[C@@H](C6=CC(=O)OC6)CC[C@]5(O)[C@@H]4CC[C@]3(O)C2)[C@H](O)[C@H](O)[C@H]1O", "note": "[ouabain]", "values": [
      {"measurement": "effect on CD45-cat phosphatase", "setting": "CD45-cat; ouabain at 1 mM", "result": "Neither ouabain at 1 mM or okadaic acid at 6.7 μM had any effect"},
      {"measurement": "inhibition of background infected cells", "setting": "[2]", "result": "no inhibition up to 1 mM"},
      {"measurement": "effect on background phosphatases", "setting": "[2]; ouabain at 1 mM", "result": "Neither ouabain at 1 mM or okadaic acid at 6.7 μM had any effect"},
      {"measurement": "inhibition of CD45 expressing cells", "setting": "CD45", "result": "no inhibition up to 1 mM"}
    ]}
  ]
}
